Measurements taken from article PMC6706640, “Systematic mapping of protein‐metabolite interactions in central metabolism of Escherichia coli” (Molecular Systems Biology, 2019).

What was measured:
[1] = molecular target: T1, NADP+-dependent glucose-6-phosphate dehydrogenase (Zwf) (Escherichia coli, UniProt P0AC53); assay: ligand-detected T1rho 1H NMR; inhibition checked by NADPH formation assay; format: biochemical; conditions: NMR: 15 uM monomer, 200 uM metabolite in mix, pH 7.5, 298 K, 5 mM MgCl2; activity: 2 and 10 mM GTP, 2 mM G6P, 1 mM NADP+, 30 C
T1 construct: full-length His-tagged protein from ASKA library clone (E. coli K-12 ORF collection)

enolase (Eno) = molecular target: T2, enolase (Eno) (Escherichia coli, UniProt P0A6P9); assay: ligand-detected T1rho 1H NMR; format: binding; conditions: 15 uM monomer, 200 uM metabolite in mix, pH 7.5, 298 K, 5 mM MgCl2
T2 construct: full-length His-tagged protein from ASKA library clone (E. coli K-12 ORF collection)

[2] = molecular target: T3, 6-phosphofructokinase I (PfkA) (Escherichia coli, UniProt P0A796); assay: ligand-detected T1rho 1H NMR; format: binding; conditions: 15 uM monomer, 200 uM metabolite in mix, pH 7.5, 298 K, 5 mM MgCl2
T3 construct: full-length His-tagged protein from ASKA library clone (E. coli K-12 ORF collection)
T3 sequence (P0A796 1-320): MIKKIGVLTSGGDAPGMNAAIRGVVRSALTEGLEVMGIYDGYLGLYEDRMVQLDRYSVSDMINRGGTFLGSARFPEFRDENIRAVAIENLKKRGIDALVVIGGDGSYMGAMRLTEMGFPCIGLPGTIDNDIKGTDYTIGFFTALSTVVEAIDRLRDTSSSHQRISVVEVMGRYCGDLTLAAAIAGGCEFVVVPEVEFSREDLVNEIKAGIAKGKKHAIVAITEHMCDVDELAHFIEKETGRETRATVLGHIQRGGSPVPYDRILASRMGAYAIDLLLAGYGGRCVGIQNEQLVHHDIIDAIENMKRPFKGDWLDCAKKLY

T2 sequence (P0A6P9 2-432): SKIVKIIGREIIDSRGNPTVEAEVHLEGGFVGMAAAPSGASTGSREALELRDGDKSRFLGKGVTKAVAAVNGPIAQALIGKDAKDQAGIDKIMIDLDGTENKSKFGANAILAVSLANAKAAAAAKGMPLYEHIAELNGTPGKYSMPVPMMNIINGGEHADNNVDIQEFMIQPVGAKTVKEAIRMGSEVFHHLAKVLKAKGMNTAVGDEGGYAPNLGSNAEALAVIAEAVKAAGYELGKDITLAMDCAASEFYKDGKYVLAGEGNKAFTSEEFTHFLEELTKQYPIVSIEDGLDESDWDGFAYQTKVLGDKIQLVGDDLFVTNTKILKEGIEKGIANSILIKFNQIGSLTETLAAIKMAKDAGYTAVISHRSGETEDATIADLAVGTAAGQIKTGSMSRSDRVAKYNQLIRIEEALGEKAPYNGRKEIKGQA
T1 sequence (P0AC53 whole entry): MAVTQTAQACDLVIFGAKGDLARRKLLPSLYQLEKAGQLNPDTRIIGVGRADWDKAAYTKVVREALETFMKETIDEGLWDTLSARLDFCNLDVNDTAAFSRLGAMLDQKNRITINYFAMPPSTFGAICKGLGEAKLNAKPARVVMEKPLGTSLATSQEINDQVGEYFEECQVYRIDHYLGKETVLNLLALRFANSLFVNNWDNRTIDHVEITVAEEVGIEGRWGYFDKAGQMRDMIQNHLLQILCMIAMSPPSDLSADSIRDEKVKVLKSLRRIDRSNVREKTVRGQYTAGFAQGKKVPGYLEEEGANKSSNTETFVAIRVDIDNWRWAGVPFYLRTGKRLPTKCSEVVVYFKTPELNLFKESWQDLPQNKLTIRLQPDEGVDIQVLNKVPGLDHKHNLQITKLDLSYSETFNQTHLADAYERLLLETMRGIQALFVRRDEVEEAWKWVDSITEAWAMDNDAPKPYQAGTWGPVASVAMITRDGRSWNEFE

SMILES: Nc1nc2c(ncn2[C@@H]2O[C@H](COP(=O)(O)OP(=O)(O)OP(=O)(O)O)[C@@H](O)[C@H]2O)c(=O)[nH]1 [GTP]
- ΔRF [1]: ATP and GTP indeed inhibited Zwf even at physiological concentrations of MgCl2

SMILES: C=C(OP(=O)(O)O)C(=O)O [phosphoenolpyruvate]
- ΔRF (enolase (Eno)): two of which were detected in both datasets (Eno–PEP and PfkA–AMP)

SMILES: Nc1ncnc2c1ncn2[C@@H]1O[C@H](COP(=O)(O)O)[C@@H](O)[C@H]1O [AMP]
- ΔRF [2]: two of which were detected in both datasets (Eno–PEP and PfkA–AMP)
